# Source: ChEMBL document CHEMBL2150993, “Substituted thiazoles VII. Synthesis and antitumor activity of certain 2-(substituted amino)-4-phenyl-1,3-thiazole analogs” (2012)
# Active and inactive are the calls of the source. The calls are words filed in the database; no cut-off is given here.
# Columns and labels:
# Assay type in all cases: functional
# SN12C = assay: Growth inhibition of human SN12C cells after 48 hrs by cell counting analysis; conditions: at 10 µM
# EKVX = assay: Growth inhibition of human EKVX cells after 48 hrs by cell counting analysis; conditions: at 10 µM
# MOLT-4 = assay: Growth inhibition of human MOLT4 cells after 48 hrs by cell counting analysis; conditions: at 10 µM
# NCI-H226 = assay: Growth inhibition of human NCI-H226 cells after 48 hrs by cell counting analysis; conditions: at 10 µM
# T47D = assay: Growth inhibition of human T47D cells after 48 hrs by cell counting analysis; conditions: at 10 µM
# [1] = Antiproliferative activity against human ovarian cancer cells after 48 hrs by cell counting analysis; conditions: Cancer cell lines
# HT-29 = assay: Growth inhibition of human HT-29 cells after 48 hrs by cell counting analysis; conditions: at 10 µM
# UACC-62 = assay: Growth inhibition of human UACC62 cells after 48 hrs by cell counting analysis; conditions: at 10 µM
# CCRF-CEM = assay: Growth inhibition of human CCRF-CEM cells after 48 hrs by cell counting analysis; conditions: at 10 µM
# SK-OV-3 = assay: Growth inhibition of human SKOV3 cells after 48 hrs by cell counting analysis; conditions: at 10 µM
# [2] = Antiproliferative activity against human leukemia cells after 48 hrs by cell counting analysis
# SK-MEL-28 = assay: Growth inhibition of human SK-MEL-28 cells after 48 hrs by cell counting analysis; conditions: at 10 µM
# SF-295 = assay: Growth inhibition of human SF295 cells after 48 hrs by cell counting analysis; conditions: at 10 µM
# MDA-MB-468 = assay: Growth inhibition of human MDA-MB-468 cells after 48 hrs by cell counting analysis
# SW-620 = assay: Growth inhibition of human SW620 cells after 48 hrs by cell counting analysis; conditions: at 10 µM
# OVCAR-8 = assay: Growth inhibition of human OVCAR8 cells after 48 hrs by cell counting analysis; conditions: at 10 µM
# OVCAR-3 = assay: Growth inhibition of human OVCAR3 cells after 48 hrs by cell counting analysis; conditions: at 10 µM
# [3] = Antiproliferative activity against human non-small cell lung cancer cells after 48 hrs by cell counting analysis; conditions: Cancer cell lines
# K562 = assay: Growth inhibition of human K562 cells after 48 hrs by cell counting analysis; conditions: at 10 µM
# SF-539 = assay: Growth inhibition of human SF539 cells after 48 hrs by cell counting analysis; conditions: at 10 µM
# LOX IMVI = assay: Growth inhibition of human LOXIMVI cells after 48 hrs by cell counting analysis; conditions: at 10 µM
# SK-MEL-5 = assay: Growth inhibition of human SK-MEL-5 cells after 48 hrs by cell counting analysis; conditions: at 10 µM
# HCT-15 = assay: Growth inhibition of human HCT15 cells after 48 hrs by cell counting analysis; conditions: at 10 µM
# SR = assay: Growth inhibition of human SR cells after 48 hrs by cell counting analysis; conditions: at 10 µM
# NCI-H23 = assay: Growth inhibition of human NCI-H23 cells after 48 hrs by cell counting analysis; conditions: at 10 µM
# NCI-H522 = assay: Growth inhibition of human NCI-H522 cells after 48 hrs by cell counting analysis; conditions: at 10 µM
# [4] = Growth inhibition of human NCI-ADR-RES cells after 48 hrs by cell counting analysis; conditions: at 10 µM
# CAKI-1 = assay: Growth inhibition of human Caki1 cells after 48 hrs by cell counting analysis; conditions: at 10 µM
# HCC 2998 = assay: Growth inhibition of human HCC2998 cells after 48 hrs by cell counting analysis; conditions: at 10 µM
# HCT-116 = assay: Growth inhibition of human HCT116 cells after 48 hrs by cell counting analysis; conditions: at 10 µM
# MDA-MB-231 = assay: Growth inhibition of human MDA-MB-231 cells after 48 hrs by cell counting analysis; conditions: at 10 µM
# HL-60 = assay: Growth inhibition of human HL60 cells after 48 hrs by cell counting analysis; conditions: at 10 µM
# [5] = Antiproliferative activity against human CNS cancer cells after 48 hrs by cell counting analysis; conditions: Cancer cell lines
# ACHN = assay: Growth inhibition of human ACHN cells after 48 hrs by cell counting analysis; conditions: at 10 µM
# MDA-MB-435 = assay: Growth inhibition of human MDA-MB-435 cells after 48 hrs by cell counting analysis; conditions: at 10 µM
# HOP-92 = assay: Growth inhibition of human HOP92 cells after 48 hrs by cell counting analysis
# TK-10 = assay: Growth inhibition of human TK10 cells after 48 hrs by cell counting analysis; conditions: at 10 µM
# MCF7 = assay: Growth inhibition of human MCF7 cells after 48 hrs by cell counting analysis; conditions: at 10 µM
# UO-31 = assay: Growth inhibition of human UO31 cells after 48 hrs by cell counting analysis; conditions: at 10 µM
# OVCAR-5 = assay: Growth inhibition of human OVCAR5 cells after 48 hrs by cell counting analysis; conditions: at 10 µM
# BT-549 = assay: Growth inhibition of human BT549 cells after 48 hrs by cell counting analysis; conditions: at 10 µM
# IGROV-1 = assay: Growth inhibition of human IGROV1 cells after 48 hrs by cell counting analysis; conditions: at 10 µM
# HOP-62 = assay: Growth inhibition of human HOP62 cells after 48 hrs by cell counting analysis; conditions: at 10 µM
# OVCAR-4 = assay: Growth inhibition of human OVCAR4 cells after 48 hrs by cell counting analysis; conditions: at 10 µM
# UACC-257 = assay: Growth inhibition of human UACC257 cells after 48 hrs by cell counting analysis; conditions: at 10 µM
# KM12 = assay: Growth inhibition of human KM12 cells after 48 hrs by cell counting analysis; conditions: at 10 µM
# U-251 = assay: Growth inhibition of human U251 cells after 48 hrs by cell counting analysis; conditions: at 10 µM
# Malme-3M = assay: Growth inhibition of human MALME-3M cells after 48 hrs by cell counting analysis; conditions: at 10 µM
# SNB-75 = assay: Growth inhibition of human SNB75 cells after 48 hrs by cell counting analysis; conditions: at 10 µM
# RPMI-8226 = assay: Growth inhibition of human RPMI8226 cells after 48 hrs by cell counting analysis; conditions: at 10 µM
# M14 = assay: Growth inhibition of human M14 cells after 48 hrs by cell counting analysis; conditions: at 10 µM
# SK-MEL-2 = assay: Growth inhibition of human SK-MEL-2 cells after 48 hrs by cell counting analysis; conditions: at 10 µM
# [6] = Antiproliferative activity against human renal cancer cells after 48 hrs by cell counting analysis; conditions: Cancer cell lines
# RXF 393 = assay: Growth inhibition of human RXF393 cells after 48 hrs by cell counting analysis
# [7] = Antiproliferative activity against human melanoma cells after 48 hrs by cell counting analysis
# [8] = Antiproliferative activity against human prostate cancer cells after 48 hrs by cell counting analysis; conditions: Cancer cell lines
# [9] = Antiproliferative activity against human colon cancer cells after 48 hrs by cell counting analysis; conditions: Cancer cell lines
# [10] = Growth inhibition of human NCI-322M cells after 48 hrs by cell counting analysis; conditions: at 10 µM
# PC-3 = assay: Growth inhibition of human PC3 cells after 48 hrs by cell counting analysis; conditions: at 10 µM
# A549 = assay: Growth inhibition of human A549 cells after 48 hrs by cell counting analysis; conditions: at 10 µM
# SNB-19 = assay: Growth inhibition of human SNB19 cells after 48 hrs by cell counting analysis; conditions: at 10 µM
# [11] = Antiproliferative activity against human breast cancer cells after 48 hrs by cell counting analysis; conditions: Cancer cell lines
# SF-268 = assay: Growth inhibition of human SF268 cells after 48 hrs by cell counting analysis; conditions: at 10 µM
# [12] = read-out: LC50 (the source's name)
structure (smiles),measurement,setting,value
O=C(CCCl)Nc1nc(-c2ccc(Cl)cc2)cs1,growth inhibition (GI),SN12C,48.3%
same,growth inhibition (GI),EKVX,29.6%
same,growth inhibition (GI),MOLT-4,61.3%
same,growth inhibition (GI),NCI-H226,51%
same,growth inhibition (GI),T47D,52.1%
same,GI50,[1],4.1 µM
same,TGI,[1],21.8 µM
same,CC50,[1]; [12],67 µM
same,growth inhibition (GI),HT-29,78%
same,growth inhibition (GI),UACC-62,38.7%
same,growth inhibition (GI),CCRF-CEM,88.3%
same,growth inhibition (GI),SK-OV-3,25.7%
same,GI50,[2],2200 nM
same,TGI,[2],8.9 µM
same,CC50,[2]; [12],90.2 µM
same,growth inhibition (GI),SK-MEL-28,21.2%
same,growth inhibition (GI),SF-295,29.8%
same,growth inhibition (GI),MDA-MB-468,Active
same,growth inhibition (GI),SW-620,76%
same,growth inhibition (GI),OVCAR-8,52.8%
same,growth inhibition (GI),OVCAR-3,89.8%
same,GI50,[3],6.1 µM
same,TGI,[3],19 µM
same,CC50,[3]; [12],51.5 µM
same,growth inhibition (GI),K562,63%
same,growth inhibition (GI),SF-539,94.6%
same,growth inhibition (GI),LOX IMVI,43.1%
same,growth inhibition (GI),SK-MEL-5,46.8%
same,growth inhibition (GI),HCT-15,61.4%
same,growth inhibition (GI),SR,77.7%
same,growth inhibition (GI),NCI-H23,29%
same,growth inhibition (GI),NCI-H522,95.6%
same,growth inhibition (GI),[4],51.2%
same,growth inhibition (GI),CAKI-1,52.5%
same,growth inhibition (GI),HCC 2998,15.8%
same,growth inhibition (GI),HCT-116,79.3%
same,growth inhibition (GI),MDA-MB-231,44.6%
same,growth inhibition (GI),HL-60,28.5%
same,GI50,[5],3.1 µM
same,TGI,[5],14.7 µM
same,CC50,[5]; [12],50.9 µM
same,growth inhibition (GI),ACHN,39.2%
same,growth inhibition (GI),MDA-MB-435,68.1%
same,growth inhibition (GI),HOP-92,Active
same,growth inhibition (GI),TK-10,<10%
same,growth inhibition (GI),MCF7,55.8%
same,growth inhibition (GI),UO-31,70.1%
same,growth inhibition (GI),OVCAR-5,35.7%
same,growth inhibition (GI),BT-549,89.9%
same,growth inhibition (GI),IGROV-1,48.9%
same,growth inhibition (GI),HOP-62,49%
same,growth inhibition (GI),OVCAR-4,16.4%
same,growth inhibition (GI),UACC-257,43%
same,growth inhibition (GI),KM12,43.8%
same,growth inhibition (GI),U-251,55.4%
same,growth inhibition (GI),Malme-3M,44%
same,growth inhibition (GI),SNB-75,58.8%
same,growth inhibition (GI),RPMI-8226,92.8%
same,growth inhibition (GI),M14,44.7%
same,growth inhibition (GI),SK-MEL-2,72.7%
same,GI50,[6],1700 nM
same,TGI,[6],7.9 µM
same,CC50,[6]; [12],32.1 µM
same,growth inhibition (GI),RXF 393,Active
same,GI50,[7],3.2 µM
same,TGI,[7],13.1 µM
same,CC50,[7]; [12],47.6 µM
same,GI50,[8],2800 nM
same,TGI,[8],13.8 µM
same,CC50,[8]; [12],42.2 µM
same,GI50,[9],3.9 µM
same,TGI,[9],13.5 µM
same,CC50,[9]; [12],44 µM
same,growth inhibition (GI),[10],16.9%
same,growth inhibition (GI),PC-3,59.7%
same,growth inhibition (GI),A549,39.9%
same,growth inhibition (GI),SNB-19,26.2%
same,GI50,[11],2400 nM
same,TGI,[11],8.8 µM
same,CC50,[11]; [12],55.9 µM
same,growth inhibition (GI),SF-268,51.7%
